# Where a name gives a salt, the structure may show the parent alone. Read-outs that look alike come from different tables or passages of the source.
# Columns and labels:
# [1] = tested on: hind limb vasculature of the anesthetized dog; test: Vasodilator activity, dog-leg perfusion; assay type: in vivo; conditions: approximate intraarterial dose causing 50% reduction in perfusion pressure in hind limb; for ED50: Canis lupus familiaris, read-out: Vasodilator Activity Dog-Leg Perfusion AED50
# Text: (§1) Vasodilator activity was judged on the basis of observed reduction in perfusion pressure in the hind limb vasculature of the anesthetized dog determined according to the procedure described by Jandhyala et al., European J. Pharm. 17, 357 (1972), and also on the basis of percent reduction in perfusion pressure as measured in the isolated rabbit ear artery according to the method described by De LaLande et al., Aust. J. Exp. Biol. Med. Sci. 43, 639 (1965).
# ^c AED50 =approximate intraarterial dose required to cause a 50%
# reduction in perfusion pressure in the hind limb of the anesthetized dog.
# [2] = tested on: histamine-induced bronchoconstriction in the dog; test: Block of histamine-induced bronchoconstriction in the dog (β-adrenergic stimulant activity); assay type: in vivo
# [3] = tested on: heart rate increase elicited by isoproterenol in the pentobarbitalized dog; test: β-adrenergic blocking activity in the pentobarbitalized dog; assay type: in vivo; conditions: for inhibition at 1 mg/kg / ED50 / inhibition at 0.1 mg/kg: Canis lupus familiaris; for inhibition at 1 mg/kg: 1.0 mg./kg. intravenous; for inhibition at 1 mg/kg / inhibition at 0.1 mg/kg: read-out: Actual percentage inhibition of heart rate increase above control level at the indicated dose; for ED50 / Adrenergic Activity Dog β-blockade AED50: approximate intravenous dose causing 50% inhibition of isoproterenol-elicited heart rate increase; for ED50: read-out: Adrenergic Activity Dog β-blockade AED50; for inhibition at 0.1 mg/kg: 0.1 mg./kg. intravenous
# Method: The β-adrenergic blocking activity was determined in the pentobarbitalized dog as judged by the ability of the test compound to inhibit the elevation is heart rate elicited by a 0.5 mcg./kg. i.v. injection of isoproterenol.
# ^e AED50 = approximate intravenous dose required to cause 50%
# inhibition of the heart rate increase elicited by isoproterenol in the
# ^h Actual percentage inhibition of heart rate increase above control
# level observed at the indicated dose.
# [4] = tested on: isolated rabbit ear artery; test: Vasodilator activity, isolated rabbit ear artery perfusion pressure; conditions: Oryctolagus cuniculus, read-out: Rabbit Ear Artery vasodilation (percentage reduction in perfusion pressure); for inhibition at 10 µM: 1 × 10^-5 M; for inhibition at 20 µM: 2 × 10^-5 M; for inhibition at 50 µM: 5 × 10^-5 M
# Text: as §1
# ^d Vasodilation is expressed as the percentage reduction in perfusion
# pressure from the control level at the indicated molar dose.
# [5] = tested on: unanesthetized spontaneous hypertensive rat; test: Antihypertensive activity, single oral medication in the spontaneous hypertensive rat (SH Rat); assay type: in vivo; conditions: for ED (40 mm Hg): Rattus norvegicus, single oral dose required to induce a 40 mm average reduction in systolic blood pressure, read-out: Antihypertensive Activity SH Rat AHD40 mg./kg. P.O.; for Actual reduction in blood pressure observed at the indicated dose: SH rat; for lower blood pressure: at 50 mg./kg.
# Method: Antihypertensive activity was determined on the basis of the observed reduction in systolic blood pressure measured according to the method of H. Kersten et al., J. Lab. and Clin. Med. 32, 1090 (1947) following a single oral medication in the unanesthetized spontaneous hypertensive rat described by Okamato et al., Japan Circulation J. 27, 282 (1963).
# ^a AHD40 = single oral dose required to induce a 40 mm average
# reduction in systolic blood pressure in the unanesthetized spontaneous
# ^f Actual reduction in blood pressure (in mm Hg) observed at the […]
# [6] = tested on: unanesthetized trained renal hypertensive dog; test: Antihypertensive activity, repeated oral medication in the renal hypertensive dog; assay type: in vivo; conditions: for minimal effective dose: Canis lupus familiaris, minimum repeated oral daily dose for sustained lowering of blood pressure of 10% or greater, tid, read-out: Antihypertensive Activity Renal Hypertensive Dog MED10 mg./kg. tid
# Text: Antihypertensive activity was also judged on the basis of sustained reduction of blood pressure observed in the unanesthetized trained renal hypertensive dog following repeated oral medication according to the procedure described by Lape et al., Arch. Int. Pharmacodyn. 160, 342 (1966).
# ^b MED10 = minimum repeated oral daily dose required to effect a
# sustained lowering of blood pressure of 10% or greater in the
# unanesthetized trained renal hypertensive dog.
# ^g Actual precentage reduction in blood pressure observed at the […]
# [7] = tested on: ouabain-induced arrhythmia in dogs; test: Ouabain-induced arrhythmia conversion
structure (smiles),measurement,setting,value
"COc1ccc(CC(C)NCC(O)c2ccc(OC(C)=O)c(SC)c2)cc1 (stereo not drawn) [Example 2, 4-hydroxy-α-<{[2-(4-methoxyphenyl-1-methylethyl]amino}methyl>-3-(methylthio)benzenemethanol 4-aceetate hydrochloride]",ED50,[1],0.5 mg/kg
same,β-adrenergic stimulant activity,[2],ability to block histamine-induced bronchoconstriction
same,inhibition at 1 mg/kg,[3],60%
same,ED50,[3],< 1 mg/kg
same,inhibition at 10 µM,[4],50%
same,ED (40 mm Hg),[5],10 mg/kg
"COc1ccc(CC(C)NCC(O)c2ccc(O)c(SC)c2)cc1 (stereo not drawn) [Example 3, 4-hydroxy-α-<{[2-(4-methoxyphenyl)-1-methylethyl]amino}methyl>-3-(methylthio)benzenemethanol acetate salt]",ED50,[1],0.5 mg/kg
same,ED50,[3],0.1 mg/kg
same,inhibition at 20 µM,[4],56%
same,ED (40 mm Hg),[5],20 mg/kg
"CSc1cc(C(O)CNC(C)CCc2ccccc2)ccc1O (stereo not drawn) [Example 32, 4-hydroxy-α-{[(1-methyl-3-phenylpropyl)amino]methyl}-3-methylthio)benzenemethanol acetate salt]",ED50,[1],0.5 mg/kg
same,ED50,[3]; iv,0.1 mg/kg
same,inhibition at 50 µM,[4],81%
same,ED (40 mm Hg),[5],5 mg/kg
"COc1ccc(CCC(C)NCC(O)c2ccc(O)c(SC)c2)cc1 (stereo not drawn) [Example 5, 4-hydroxy-α-<{[3-(4-methoxyphenyl)-1-methylpropyl]amino}methyl>-3-(methylthio)benzenemethanol acetate salt]",ED50,[1],0.5 mg/kg
same,ED50,[3]; iv,0.1 mg/kg
same,minimal effective dose,[6],> 2.5 mg/kg
same,Actual percentage reduction in blood pressure observed at the indicated dose,"[6]; renal hypertensive dog, 2.5 mg./kg. tid",0%
same,inhibition at 100 µM,[4]; 1 × 10^-4 M,55%
same,ED (40 mm Hg),[5],15 mg/kg
same,lowers blood pressure,[5]; at a dose of 15 mg./kg.,40 mm
same,potency relative to the reference compounds,[5]; at less than one-third the dose of Reference Compounds I and II,twice as potent
"COc1ccc(CCC(C)NCC(O)c2ccc(O)c(SC)c2)cc1 (stereo not drawn) [Example 12C, 4-hydroxy-α<{[3-(4-methoxyphenyl)-1-methylpropyl]amino}methyl>-3-(methylthio)benzenemethanol acetate salt]",Adrenergic Activity Dog β-blockade AED50,[3]; acetate salt,~0.10 mg/kg
"CC(=O)O.CSc1cc(C(O)CNC(C)(C)CCc2ccccc2)ccc1O (stereo not drawn) [Example 28, α-{[(1,1-dimethyl-3-phenylpropyl)amino]methyl}-4-hydroxy-3-(methylthio)benzenemethanol acetate salt]",ED50,[1],0.5 mg/kg
same,ED50,[3]; iv,< 1 mg/kg
same,inhibition at 1 mg/kg,[3],100%
same,inhibition at 50 µM,[4],70%
same,ED (40 mm Hg),[5],~10 mg/kg
"CSc1cc(C(O)CNC(C)Cc2ccccc2)ccc1O (stereo not drawn) [Example 22, 4-hydroxy-α-{[(1-methyl-3-phenylethyl)amino]methyl}-3-(methylthio)benzenemethanol acetate salt]",ED50,[1],0.5 mg/kg
same,inhibition at 1 mg/kg,[3],60%
same,ED50,[3],< 1 mg/kg
same,inhibition at 20 µM,[4],33%
same,ED (40 mm Hg),[5],35 mg/kg
"COc1ccc(CCC(C)NCC(O)c2ccc(O)c(SC)c2)cc1 (single isomer, unassigned) [Example 13B]",Vasodilator Activity Dog-Leg Perfusion AED50,[1],0.5 mg/kg
same,Adrenergic Activity Dog β-blockade AED50,[3],0.1 mg/kg
"COc1ccc(CC(C)NC(C)C(O)c2ccc(O)c(SC)c2)cc1 (stereo not drawn) [Example 24, 4-hydroxy-α-<{[2-(4-methoxyphenyl)-1-methylethyl]amino}ethyl>-3-(methylthio)benzenemethanol acetate salt]",ED (40 mm Hg),[5],> 20 mg/kg
same,Actual reduction in blood pressure observed at the indicated dose,[5]; 20.0 mg./kg. P.O.,-23 mm Hg
"COc1ccc(CCC(C)NCC(O)c2ccc(SC)c(O)c2)cc1 (stereo not drawn) [Ref Cpd I, 3-hydroxy-α-<{[3-(4-methoxyphenyl)-1-methylpropyl]amino}methyl>-4-(methylthio)benzenemethanol acetate salt, reference compound]",ED (40 mm Hg),[5],> 50 mg/kg
same,Actual reduction in blood pressure observed at the indicated dose,[5]; 50.0 mg./kg. P.O.,-20 mm Hg
same,lower blood pressure,[5],20 mm
"COc1ccc(CCC(C)NCC(O)c2ccc(OC(=O)c3ccccc3)c(SC)c2)cc1 (stereo not drawn) [Example 15A, 4-hydroxy-α-<{[3-(4-methoxyphenyl)-1-methylpropyl]amino}methyl>-3-(methylthio)benzenemethanol 4-benzoate acetate salt]",ED (40 mm Hg),[5],> 50 mg/kg
same,Actual reduction in blood pressure observed at the indicated dose,[5]; 50.0 mg./kg. P.O.,-10 mm Hg
"CC(=O)O.CSc1cc(C(O)CNC(C)(C)Cc2ccccc2)ccc1O (stereo not drawn) [Example 20, α-{[(1,1-dimethyl-2-phenylethyl)amino]methyl}-4-hydroxy-3-(methylthio)benzenemethanol acetate salt]",ED50,[1],0.5 mg/kg
same,inhibition at 1 mg/kg,[3],56%
same,ED50,[3],< 1 mg/kg
same,inhibition at 10 µM,[4],71%
same,ED (40 mm Hg),[5],~50 mg/kg
"COc1cc(CCNCC(O)c2ccc(O)c(SC)c2)cc(OC)c1OC (stereo not drawn) [Example 51, 4-hydroxy-3-(methylthio)-α-<{[2-(3,4,5-trimethoxyphenyl)ethylamino}methyl>benzenemethanol hydrochloride]",toxic dose in the ouabain test,[7]; anesthetized dog,2.5×10^-5 Mg/kg.
same,activity in the ouabain test,[7]; below 2.5×10^-5 Mg/kg.,inactive
"COc1ccc(CCC(C)NCC(O)c2ccc(O)c(SC)c2)cc1 (stereo not drawn) [Example 12B, 4-hydroxy-α-<{[3-(4-methoxyphenyl)-1-methylpropyl]amino}methyl>3-(methylthio)benzenemethanol acetate salt]",inhibition at 0.1 mg/kg,[3],45%
same,Adrenergic Activity Dog β-blockade AED50,[3]; acetate salt,> 0.1 mg/kg
"COc1ccc(CCC(C)NCC(O)c2ccc(OC)c(SC)c2)cc1 (stereo not drawn) [Ref Cpd II, 4-methoxy-α-<{[3-(4-methoxyphenyl)-1-methylpropyl]amino}methyl>-3-(methylthio)benzenemethanol hydrochloride, reference compound]",ED50,[3]; iv,0.07 mg/kg
same,ED (40 mm Hg),[5],> 50 mg/kg
same,Actual reduction in blood pressure observed at the indicated dose,[5]; 50.0 mg./kg. P.O.,-24 mm Hg
same,lower blood pressure,[5],24 mm
"COc1ccc(CCC(C)(C)NCC(O)c2ccc(O)c(SC)c2)cc1 (stereo not drawn) [Example 30, α-<{[1,1-dimethyl-3-(4-methoxyphenyl)propyl]amino}methyl>-4-hydroxy-3-(methylthio)benzenemethanol acetate salt]",ED50,[1],0.5 mg/kg
same,ED50,[3]; iv,< 1 mg/kg
same,inhibition at 1 mg/kg,[3],72%
same,minimal effective dose,[6],0.5 mg/kg
same,inhibition at 90 µM,[4]; 9 × 10^-5 M,50%
same,ED (40 mm Hg),[5],20 mg/kg
"COc1ccc(CCCC(C)NCC(O)c2ccc(O)c(SC)c2)cc1 (stereo not drawn) [Example 36, 4-hydroxy-α-<{[4-(4-methoxyphenyl)1-methylbutyl]amino}methyl>-3-(methylthio)benzenemethanol acetate salt]",ED (40 mm Hg),[5],> 50 mg/kg
same,Actual reduction in blood pressure observed at the indicated dose,[5]; 50.0 mg./kg. P.O.,-17 mm Hg
"CSc1cc(C(O)CNC(C)CCc2ccc(O)cc2)ccc1O (single isomer, unassigned) [Example 40B, 4-hydroxy-α-<{[3-(4-hydroxyphenyl)-1-methylpropyl]amino}-methyl>-3-(methylthio)benzenemethanol cyclohexanesulfamate]",ED50,[3]; iv,0.1 mg/kg
same,ED (40 mm Hg),[5],> 50 mg/kg
same,Actual reduction in blood pressure observed at the indicated dose,[5]; 50.0 mg./kg. P.O.,-9 mm Hg
"COc1ccc(CCC(C)NCC(O)c2ccc(O)c(SC)c2)cc1 (single isomer, unassigned) [Example 13A]",ED50,[1],0.5 mg/kg
same,ED50,[3]; iv,> 0.1 mg/kg
same,inhibition at 0.1 mg/kg,[3],14%

# From US4695589A, “Alpha-(aminoalkyl-4-hydroxy-3-(alkylthio)benzenemethanols” (Sterling Drug Inc., priority 1983, dated 1987)
